Where two headings read alike, the source gives them in different places.
Test system: tissue strips obtained from Landrace pig bladders
Experiment: Functional potassium channel opening activity in isolated bladder strips (field-stimulated twitch)
Conditions: for Index: ED50 for P1075 divided by ED50 for the test agonist in a given tissue, averaged; for EC50: amount of agent necessary to cause 50% of the agent's maximal response, read-out: ED50 (the source's name); for Emax / Efficacy (% P1075): maximal efficacy relative to P1075, field stimulation 0.05 Hz, 0.5 ms, 20 volts
Method: Compounds were evaluated for functional potassium channel opening activity using tissue strips obtained from Landrace pig bladders.
Landrace pig bladders were obtained from female Landrace pigs of 9-30 kg. Landrace pigs were euthanized with an intraperitoneal injection of pentobarbital solution, Somlethal®, J. A. Webster Inc., Sterling, Mass. The entire bladder was removed and immediately placed into Krebs Ringer bicarbonate solution (composition, mM: NaCl, 120; NaHCO3, 20; dextrose, 11; KCl, 4.7; CaCl2, 2.5; MgSO4, 1.5; KH2PO4, 1.2; K2EDTA, 0.01, equilibrated with 5% CO2/95% O2pH 7.4 at 37° C.). Propranolol (0.004 mM) was included in all of the assays to block β-adrenoceptors. The trigonal and dome portions were discarded. Strips 3-5 mm wide and 20 mm long were prepared from the remaining tissue cut in a circular fashion. The mucosal layer was removed. One end was fixed to a stationary glass rod and the other to a Grass FT03 transducer at a basal preload of 1.0 gram. Two parallel platinum electrodes were included in the stationary glass rod to provide field stimulation of 0.05 Hz, 0.5 milli-seconds at 20 volts. This low frequency stimulation produced a stable twitch response of 100-500 centigrams. Tissues were allowed to equilibrate for at least 60 minutes and primed with 80 mM KCl. A control concentration response curve (cumulative) was generated for each tissue using the potassium channel opener P1075 as the control agonist. […] After a 60 minute rinsing period, a concentration response curve (cumulative) was generated for the test agonist in the same fashion as that used for the control agonist P1075. The maximal efficacy of each compound (expressed as % relative to P1075) is reported. The amount of agent necessary to cause 50% of the agent's maximal response (ED50) was calculated using “ALLFIT” (DeLean et al., Am. J. Physiol., 235, E97 (1980)), hereby incorporated by reference. Agonist potencies were also expressed as an index relative to P1075. The index was calculated by dividing the ED50 for P1075 by the ED50 for the test agonist in a given tissue. Each tissue was used for only one test agonist, and the indices obtained from each tissue were averaged to provide an average index of potency.

EC50 (Sus scrofa) [nM] | EC50 [nM] | Compound | Index | Emax (Sus scrofa) [%] | Efficacy (% P1075)
7900 |  | CC(Cl)(Cl)C(NC(=O)c1cccc(Cl)c1)NC(=NC#N)Nc1ccc(C(F)(F)F)nc1 (stereo not drawn) [Example 159, 3-chloro-N-{2,2-dichloro-1-[((cyanoimino){[6-(trifluoromethyl)-3-pyridinyl]amino}methyl)amino]propyl}benzamide] | 0.013 | 92 | 
 | 1200 | CC(C)(C)CC(NC(=O)c1ccc(Cl)cc1)NC(=NS(=O)(=O)C(F)(F)F)Nc1cccnc1 (single isomer, unassigned; (+)) [Example 186, (+) 4-chloro-N-{3,3-dimethyl-1-[((3-pyridinylamino){[(trifluoromethyl)sulfonyl]imino}methyl)amino]butyl}benzamide] | 2.1 |  | 66
1200 |  | COc1ncccc1NC(=NC#N)NC(NC(=O)c1cccc(Cl)c1)C(C)(Cl)Cl (stereo not drawn) [Example 174, 3-chloro-N-[2,2-dichloro-1-({(cyanoimino)[(2-methoxy-3-pyridinyl)amino]methyl}amino)propyl]benzamide] | 2.2 | 34 | 
4800 |  | N#CN=C(Nc1cccnc1)NC(NC(=O)c1ccc(Cl)cc1)C(F)(F)C(F)(F)F (stereo not drawn) [Example 121, 4-chloro-N-(1-{[(cyanoimino)(3-pyridinylamino)methyl]amino}-2,2,3,3,3-pentafluoropropyl)benzamide] | 0.044 | 89 | 
 | 9000 | CC(Cl)(Cl)C(NC(=O)c1ccc(Cl)cc1)NC(=NC#N)Nc1ccc(Cl)nc1 (single isomer, unassigned; (+)) [Example 162, (+) 4-chloro-N-(2,2-dichloro-1-{[[(6-chloro-3-pyridinyl)amino](cyanoimino)methyl]amino}propyl)benzamide] | 0.025 |  | 87
2500 |  | CC(Cl)(Cl)C(NC(=O)c1cc(F)cc(F)c1)NC(=NC#N)Nc1ccc(C(F)(F)F)nc1 (stereo not drawn) [Example 155, N-{2,2-dichloro-1-[((cyanoimino){[6-(trifluoromethyl)-3-pyridinyl]amino}methyl)amino]propyl}-3,5-difluorobenzamide] | 0.022 | 95 | 
930 |  | CC(C)(C)CC(NC(=O)c1ccc(C(F)(F)F)cc1)NC(=NS(=O)(=O)C(F)(F)F)Nc1cccnc1 (stereo not drawn) [Example 189, N-{3,3-dimethyl-1-[((3-pyridinylamino){[(trifluoromethyl)sulfonyl]imino}methyl)amino]butyl}-4-(trifluoromethyl)benzamide] | 0.078 | 66 | 
 | 3300 | CC(Cl)(Cl)C(NC(=O)c1ccc(Cl)cc1)NC(=NC#N)Nc1cccnc1 (stereo not drawn) [Example 116, 4-chloro-N-(2,2-dichloro-1-{[(cyanoimino)(3-pyridinylamino)methyl]amino}propyl)benzamide] | 0.028 |  | 94

Reference: patent US20020028836A1, “Potassium channel openers” (priority 2000, published 2002)
